Measured values published in article PMC3903614, “Factors That Control the Chemistry of the LOV Domain Photocycle” (PLoS ONE, 2014).

What was measured:
Test in all cases: UV-Vis absorbance of bound flavin, dark recovery after photosaturation
Format in all cases: binding
[1] = target: T1, AsLOV2 (A. sativa phot1 LOV2) (Avena sativa, UniProt O49003); conditions: 22 °C; bound chromophore; covalent cysteinyl-C4a photoadduct with C450 in the light, noncovalent in the dark; adduct decay time, not an affinity; Table 1 gives 80 s from earlier work
T1 construct: gene NPH1-1; LOV2 domain with flanking helices, residues 404-560; His6-Gβ1 tag removed by TEV; GEF left on the amino terminus and G on the carboxy terminus; expressed in E. coli BL21(DE3)

[2] = target: T2, AsLOV2 (A. sativa phot1 LOV2) (Avena sativa, UniProt O49003, F494C); conditions: 22 °C; bound chromophore; covalent photoadduct with C450 in the light; adduct decay time, not an affinity
T2 construct: gene NPH1-1; LOV2 domain with flanking helices, residues 404-560; His6-Gβ1 tag removed by TEV; GEF left on the amino terminus and G on the carboxy terminus; expressed in E. coli BL21(DE3)
Excerpt: (§1) UV-Vis absorbance of bound flavin, dark recovery after photosaturation on AsLOV2 (A. sativa phot1 LOV2)

[3] = target: T3, AsLOV2 (A. sativa phot1 LOV2) (Avena sativa, UniProt O49003, Q513D); conditions: 22 °C; bound chromophore; covalent photoadduct with C450 in the light; adduct decay time, not an affinity
T3 construct: gene NPH1-1; LOV2 domain with flanking helices, residues 404-560; His6-Gβ1 tag removed by TEV; GEF left on the amino terminus and G on the carboxy terminus; expressed in E. coli BL21(DE3)
Excerpt: as §1

[4] = target: T4, AsLOV2 (A. sativa phot1 LOV2) (Avena sativa, UniProt O49003, N414Q); conditions: 22 °C; bound chromophore; covalent photoadduct with C450 in the light; adduct decay time, not an affinity
T4 construct: gene NPH1-1; LOV2 domain with flanking helices, residues 404-560; His6-Gβ1 tag removed by TEV; GEF left on the amino terminus and G on the carboxy terminus; expressed in E. coli BL21(DE3)
Excerpt: as §1

[5] = target: T5, AsLOV2 (A. sativa phot1 LOV2) (Avena sativa, UniProt O49003, N414D); conditions: 22 °C; bound chromophore; covalent photoadduct with C450 in the light; adduct decay time, not an affinity
T5 construct: gene NPH1-1; LOV2 domain with flanking helices, residues 404-560; His6-Gβ1 tag removed by TEV; GEF left on the amino terminus and G on the carboxy terminus; expressed in E. coli BL21(DE3)
Excerpt: as §1

[6] = target: T6, AsLOV2 (A. sativa phot1 LOV2) (Avena sativa, UniProt O49003, N414A); conditions: 22 °C; bound chromophore; covalent photoadduct with C450 in the light; adduct decay time, not an affinity
T6 construct: gene NPH1-1; LOV2 domain with flanking helices, residues 404-560; His6-Gβ1 tag removed by TEV; GEF left on the amino terminus and G on the carboxy terminus; expressed in E. coli BL21(DE3)
Excerpt: as §1

[7] = target: T7, AsLOV2 (A. sativa phot1 LOV2) (Avena sativa, UniProt O49003, C450V/F494C); conditions: 22 °C; relocated active-site cysteine (C494); covalent photoadduct in the light, <10% bleaching; adduct decay time, not an affinity
T7 construct: gene NPH1-1; LOV2 domain with flanking helices, residues 404-560; His6-Gβ1 tag removed by TEV; GEF left on the amino terminus and G on the carboxy terminus; expressed in E. coli BL21(DE3)
Excerpt: as §1

[8] = target: T8, AsLOV2 (A. sativa phot1 LOV2) (Avena sativa, UniProt O49003, N414L); conditions: 22 °C; bound chromophore; covalent photoadduct with C450 in the light; adduct decay time, not an affinity
T8 construct: gene NPH1-1; LOV2 domain with flanking helices, residues 404-560; His6-Gβ1 tag removed by TEV; GEF left on the amino terminus and G on the carboxy terminus; expressed in E. coli BL21(DE3)
Excerpt: as §1

[9] = target: T9, AsLOV2 (A. sativa phot1 LOV2) (Avena sativa, UniProt O49003, N414G); conditions: 22 °C; bound chromophore; covalent photoadduct with C450 in the light; adduct decay time, not an affinity
T9 construct: gene NPH1-1; LOV2 domain with flanking helices, residues 404-560; His6-Gβ1 tag removed by TEV; GEF left on the amino terminus and G on the carboxy terminus; expressed in E. coli BL21(DE3)
Excerpt: as §1

[10] = target: T10, AsLOV2 (A. sativa phot1 LOV2) (Avena sativa, UniProt O49003, Q513L); conditions: 22 °C; bound chromophore; covalent photoadduct with C450 in the light; adduct decay time, not an affinity
T10 construct: gene NPH1-1; LOV2 domain with flanking helices, residues 404-560; His6-Gβ1 tag removed by TEV; GEF left on the amino terminus and G on the carboxy terminus; expressed in E. coli BL21(DE3)
Excerpt: as §1

T6 sequence (O49003 entry or part of it N414A): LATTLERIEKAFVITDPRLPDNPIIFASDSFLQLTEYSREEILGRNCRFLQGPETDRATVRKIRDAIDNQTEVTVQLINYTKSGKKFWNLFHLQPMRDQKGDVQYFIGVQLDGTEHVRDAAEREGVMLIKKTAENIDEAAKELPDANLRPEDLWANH
T7 sequence (O49003 entry or part of it C450V/F494C): as the sequence (O49003 entry or part of it N414A) above, with A11N, C47V, F91C counted along it
T3 sequence (O49003 entry or part of it Q513D): as the sequence (O49003 entry or part of it N414A) above, with A11N, Q110D counted along it
T4 sequence (O49003 entry or part of it N414Q): as the sequence (O49003 entry or part of it N414A) above, with A11Q counted along it
T1 sequence (O49003 entry or part of it): as the sequence (O49003 entry or part of it N414A) above, with A11N counted along it
T9 sequence (O49003 entry or part of it N414G): as the sequence (O49003 entry or part of it N414A) above, with A11G counted along it
T10 sequence (O49003 entry or part of it Q513L): as the sequence (O49003 entry or part of it N414A) above, with A11N, Q110L counted along it
T5 sequence (O49003 entry or part of it N414D): as the sequence (O49003 entry or part of it N414A) above, with A11D counted along it
T2 sequence (O49003 entry or part of it F494C): as the sequence (O49003 entry or part of it N414A) above, with A11N, F91C counted along it
T8 sequence (O49003 entry or part of it N414L): as the sequence (O49003 entry or part of it N414A) above, with A11L counted along it

Cc1cc2nc3c(=O)[nH]c(=O)nc-3n(C[C@H](O)[C@H](O)[C@H](O)COP(=O)(O)O)c2cc1C [FMN, flavin mononucleotide]
τFMN [1]: 81 ± 2 s
τFMN [2]: 282 s
τFMN [3]: 5 s
τFMN [4]: 280 s
τFMN [5]: 69 s
τFMN [6]: 1427 s
τFMN [7]: 69 s
τFMN [8]: 1847 s
τFMN [9]: 615 s
τFMN [10]: 1793 s
